From BindingDB's records for doi:10.1021/jm00049a010 (University of Arizona, 1994)

Assay: Binding affinity at delta opioid receptor in guinea pig brain by [3H]c[D-Pen2, p-Cl-Phe4, D-Pen5]-enkephalin displacement.

Compound | IC50 [nM]
CC[C@H](C)[C@@H]1NC(=O)[C@H](CCCN=C(N)N)NC(=O)[C@H](CCCN=C(N)N)NC(=O)[C@@H](NC(=O)[C@H](Cc2ccccc2)NC(=O)CNC(=O)CNC(=O)[C@@H](N)Cc2ccc(O)cc2)C(C)(C)SSC(C)(C)[C@H](C(N)=O)NC(=O)[C@@H]2CCCN2C(=O)[C@H](CCCN=C(N)N)NC1=O [Tyr-Gly-Gly-Phe-Pen-Arg-Arg-Ile-Arg-Pro-D-Cys-NH2] | 717
CC[C@H](C)[C@@H]1NC(=O)[C@H](CCCN=C(N)N)NC(=O)[C@H](CCCN=C(N)N)NC(=O)[C@H](NC(=O)[C@H](Cc2ccccc2)NC(=O)CNC(=O)CNC(=O)[C@@H](N)Cc2ccc(O)cc2)CSSC[C@H](C(N)=O)NC(=O)[C@@H]2CCCN2C(=O)[C@H](CCCN=C(N)N)NC1=O [Tyr-Gly-Gly-Phe-D-Cys-Arg-Arg-Ile-Arg-Pro-D-Cys-NH2] | 1030
CC[C@H](C)[C@@H]1NC(=O)[C@H](CCCN=C(N)N)NC(=O)[C@H](CCCN=C(N)N)NC(=O)[C@@H](NC(=O)[C@H](Cc2ccccc2)NC(=O)CNC(=O)CNC(=O)[C@@H](N)Cc2ccc(O)cc2)CSSC(C)(C)[C@@H](C(N)=O)NC(=O)[C@@H]2CCCN2C(=O)[C@H](CCCN=C(N)N)NC1=O [Tyr-Gly-Gly-Phe-D-Cys-Arg-Arg-Ile-Arg-Pro-Cys-NH2] | 16
CC[C@H](C)[C@@H]1NC(=O)[C@H](CCCN=C(N)N)NC(=O)[C@H](CCCN=C(N)N)NC(=O)[C@@H](NC(=O)[C@H](Cc2ccccc2)NC(=O)CNC(=O)CNC(=O)[C@@H](N)Cc2ccc(O)cc2)C(C)(C)SSC[C@@H](C(N)=O)NC(=O)[C@@H]2CCCN2C(=O)[C@H](CCCN=C(N)N)NC1=O [Tyr-Gly-Gly-Phe-D-Pen-Arg-Arg-Ile-Arg-Pro-Cys-NH2] | 242
CC[C@H](C)[C@@H]1NC(=O)[C@H](CCCN=C(N)N)NC(=O)[C@H](CCCN=C(N)N)NC(=O)[C@@H](NC(=O)[C@H](Cc2ccccc2)NC(=O)CNC(=O)CNC(=O)[C@@H](N)Cc2ccc(O)cc2)CSSC[C@H](C(N)=O)NC(=O)[C@@H]2CCCN2C(=O)[C@H](CCCN=C(N)N)NC1=O | 14
CC[C@H](C)[C@@H]1NC(=O)[C@H](CCCN=C(N)N)NC(=O)[C@H](CCCN=C(N)N)NC(=O)[C@H](NC(=O)[C@H](Cc2ccccc2)NC(=O)CNC(=O)CNC(=O)[C@@H](N)Cc2ccc(O)cc2)C(C)(C)SSC(C)(C)[C@@H](C(N)=O)NC(=O)[C@@H]2CCCN2C(=O)[C@H](CCCN=C(N)N)NC1=O [Tyr-Gly-Gly-Phe-Pen-Arg-Arg-Ile-Arg-Pro-Cys-NH2] | 1360
CC[C@H](C)[C@@H]1NC(=O)[C@H](CCCN=C(N)N)NC(=O)[C@H](CCCN=C(N)N)NC(=O)[C@H](NC(=O)[C@H](Cc2ccccc2)NC(=O)CNC(=O)CNC(=O)[C@@H](N)Cc2ccc(O)cc2)CSSC(C)(C)[C@H](C(N)=O)NC(=O)[C@@H]2CCCN2C(=O)[C@H](CCCN=C(N)N)NC1=O [Tyr-Gly-Gly-Phe-D-Cys-Arg-Arg-Ile-Arg-Pro-D-Pen-NH2] | 1370
CC[C@H](C)[C@@H]1NC(=O)[C@H](CCCN=C(N)N)NC(=O)[C@H](CCCN=C(N)N)NC(=O)[C@H](NC(=O)[C@H](Cc2ccccc2)NC(=O)CNC(=O)CNC(=O)[C@@H](N)Cc2ccc(O)cc2)C(C)(C)SSC[C@@H](C(N)=O)NC(=O)[C@@H]2CCCN2C(=O)[C@H](CCCN=C(N)N)NC1=O [Tyr-Gly-Gly-Phe-D-Pen-Arg-Arg-Ile-Arg-Pro-Pen-NH2] | 2000
CC[C@H](C)[C@@H]1NC(=O)[C@H](CCCN=C(N)N)NC(=O)[C@H](CCCN=C(N)N)NC(=O)[C@@H](NC(=O)[C@H](Cc2ccccc2)NC(=O)CNC(=O)CNC(=O)[C@@H](N)Cc2ccc(O)cc2)CSSC(C)(C)[C@H](C(N)=O)NC(=O)[C@@H]2CCCN2C(=O)[C@H](CCCN=C(N)N)NC1=O [Tyr-Gly-Gly-Phe-D-Cys-Arg-Arg-Ile-Arg-Pro-Pen-NH2] | 319
CC[C@H](C)[C@@H]1NC(=O)[C@H](CCCN=C(N)N)NC(=O)[C@H](CCCN=C(N)N)NC(=O)[C@H](NC(=O)[C@H](Cc2ccccc2)NC(=O)CNC(=O)CNC(=O)[C@@H](N)Cc2ccc(O)cc2)C(C)(C)SSC[C@H](C(N)=O)NC(=O)[C@@H]2CCCN2C(=O)[C@H](CCCN=C(N)N)NC1=O [Tyr-Gly-Gly-Phe-D-Pen-Arg-Arg-Ile-Arg-Pro-D-Cys-NH2] | 390
CC[C@H](C)[C@@H]1NC(=O)[C@H](CCCN=C(N)N)NC(=O)[C@H](CCCN=C(N)N)NC(=O)[C@H](NC(=O)[C@H](Cc2ccccc2)NC(=O)CNC(=O)CNC(=O)[C@@H](N)Cc2ccc(O)cc2)CSSC[C@@H](C(N)=O)NC(=O)[C@@H]2CCCN2C(=O)[C@H](CCCN=C(N)N)NC1=O | 1000
CC[C@H](C)[C@@H]1NC(=O)[C@H](CCCNC(=N)N)NC(=O)[C@H](CCCNC(=N)N)NC(=O)[C@@H](NC(=O)[C@H](Cc2ccccc2)NC(=O)CNC(=O)CNC(=O)[C@@H](N)Cc2ccc(O)cc2)CSSC[C@@H](C(N)=O)NC(=O)[C@@H]2CCCN2C(=O)[C@H](CCCNC(=N)N)NC1=O | 1740
CC[C@H](C)[C@@H]1NC(=O)[C@H](CCCN=C(N)N)NC(=O)[C@H](CCCN=C(N)N)NC(=O)[C@@H](NC(=O)[C@H](Cc2ccccc2)NC(=O)CNC(=O)CNC(=O)[C@@H](N)Cc2ccc(O)cc2)C(C)(C)SSC(C)(C)[C@@H](C(N)=O)NC(=O)[C@@H]2CCCN2C(=O)[C@H](CCCN=C(N)N)NC1=O | 245
CC[C@H](C)[C@@H]1NC(=O)[C@H](CCCN=C(N)N)NC(=O)[C@H](CCCN=C(N)N)NC(=O)[C@H](NC(=O)[C@H](Cc2ccccc2)NC(=O)CNC(=O)CNC(=O)[C@@H](N)Cc2ccc(O)cc2)C(C)(C)SSC(C)(C)[C@H](C(N)=O)NC(=O)[C@@H]2CCCN2C(=O)[C@H](CCCN=C(N)N)NC1=O [Tyr-Gly-Gly-Phe-D-Pen-Arg-Arg-Ile-Arg-Pro-D-Pen-NH2] | 1910
CC[C@H](C)[C@@H]1NC(=O)[C@H](CCCN=C(N)N)NC(=O)[C@H](CCCN=C(N)N)NC(=O)[C@@H](NC(=O)[C@H](Cc2ccccc2)NC(=O)CNC(=O)CNC(=O)[C@@H](N)Cc2ccc(O)cc2)C(C)(C)SSC[C@H](C(N)=O)NC(=O)[C@@H]2CCCN2C(=O)[C@H](CCCN=C(N)N)NC1=O [Tyr-Gly-Gly-Phe-Pen-Arg-Arg-Ile-Arg-Pro-D-Pen-NH2] | 232
